Read-outs that look alike come from different tables or passages of the source.

Assay in all cases: microbe, parasite or virus in culture
In test [1] the test system is stable HCV 1b RLuc replicon cells (genotype 1b Con1 replicon). In kind it is cell-based.
Test [2] concerns stable HCV 1a RLuc replicon cells (genotype 1a H77 replicon). In kind it is cell-based. The following applies: Hepatitis C virus.
In test [3] the test system is stable HCV 2a JFH-1 Rluc replicon cells (L31 present in NS5A). In kind it is cell-based.
For test [4], the system named is NS5A chimeric genotype 1b Con1 replicon with genotype 3a S52 strain NS5A gene. In kind it is cell-based, HCV. In short, it runs like this: (§1)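 Genotype 3a (S52) and 4a (ED43) NS5A chimeras use 1b Con1 Pi-RLuc replicons, transfected transiently; 2b MD2b-1 NS5A chimera (M31) uses 2a JFH-1 RLuc-Neo replicon, transient or stable.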
The test system of test [5] is NS5A chimeric genotype 2a JFH-1 replicon with genotype 2b MD2b-1 strain NS5A gene (M31 present). Format: cell-based, HCV. The gist of the method: as §1
Test [6] relates to NS5A chimeric genotype 2a JFH-1 replicon with genotype 2a J6 strain NS5A gene (M31 present). Format: cell-based, HCV.
The test system of test [7] is NS5A chimeric genotype 1b Con1 replicon with genotype 4a ED43 strain NS5A gene. Format: cell-based, HCV.
Test [8] relates to 1a Pi-Rluc replicon with Q30R in genotype 1a NS5A. In kind it is cell-based, HCV. The gist of the method: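 Q30R introduced by site-directed mutagenesis into genotype 1a Pi-RLuc replicon; RNA transiently transfected into Huh-7-derived cured-51 cells.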
The mark [9] stands for this setting: Hepatitis C virus, read-out: 1b (nM).
Setting [10] is: Hepatitis C virus, read-out: 2a JFH.
The mark [11] stands for this setting: Hepatitis C virus, read-out: 2a JFH (nM).
The mark [12] stands for this setting: Hepatitis C virus, read-out: 3a.
Setting [13] is: Hepatitis C virus, read-out: 3a (nM).
Setting [14] is: Hepatitis C virus, read-out: 2b.
The mark [15] stands for this setting: Hepatitis C virus, read-out: 2b (s) (nM).
Setting [16] is: Hepatitis C virus, read-out: 2a J6.
[17] abbreviates: Hepatitis C virus, read-out: 2a J6 (s) (nM).
Setting [18] is: Hepatitis C virus, read-out: 4a.
Where [19] appears, read: Hepatitis C virus, read-out: 4a (s) (nM).
Setting [20] is: Hepatitis C virus, read-out: 4a (t) (nM).
Where [21] appears, read: Hepatitis C virus, read-out: 2b (t) (nM).
Setting [22] is: Hepatitis C virus, read-out: 2a Jb (t) (nM).
The mark [23] stands for this setting: Hepatitis C virus, read-out: 1a Q30R.
Where [24] appears, read: Hepatitis C virus, read-out: 1a Q30R (nM).

Regarding `COC(=O)N[C@H](C(=O)N1CCC[C@H]1c1ncc(-c2ccc3c(c2)COc2cc4c(ccc5nc([C@@H]6CCCN6C(=O)[C@H](NC(=O)C6CC6)c6ccccc6)[nH]c54)cc2-3)[nH]1)C(C)C` [Compound 516], the EC50 in test [1] (setting [9]) is 0.024 nM; in test [2] (read-out: 1a) it was below 1 nM; in test [2] (read-out: 1a (nM)), 0.015 nM; in test [3] (setting [10]), below 1 nM; in test [3] (setting [11]), 0.009 nM; in test [4] (setting [12]), below 1 nM. The EC50 was 0.005 nM in test [4] (setting [13]); below 1 nM in test [5] (setting [14]); 0.013 nM in test [5] (setting [15]); below 1 nM in test [6] (setting [16]); 0.043 nM in test [6] (setting [17]); below 1 nM in test [7] (setting [18]). Besides, the values for the EC50 in test [7] (setting [19]) and in test [7] (setting [20]) were 0.025 nM and 0.01 nM, respectively.

On to `COC[C@H]1C[C@@H](c2nc3ccc4cc5c(cc4c3[nH]2)OCc2cc(-c3cnc([C@@H]4CCCN4C(=O)[C@@H](NC(=O)OC)C(C)C)[nH]3)ccc2-5)N(C(=O)[C@H](NC(=O)OC)c2ccccc2)C1` [Example LR-1, methyl{2-[2-{9-[2-(1-{2-[(methoxycarbonyl)amino]-3-methylbutanoyl}pyrrolidin-2-yl)-1H-imidazol-5-yl]-1,11-dihydroisochromeno[4′,3′:6,7]naphtho[1,2-d]imidazol-2-yl}-4-(methoxymethyl)pyrrolidin-1-yl]-2-oxo-1-phenylethyl}carbamate], for which the EC50 is 0.016 nM in test [1] (setting [9]); below 1 nM in test [2] (read-out: 1a); 0.011 nM in test [2] (read-out: 1a (nM)); below 1 nM in test [3] (setting [10]); 0.005 nM in test [3] (setting [11]); below 1 nM in test [4] (setting [12]). Further, the EC50 in test [4] (setting [13]) is 0.013 nM; in test [5] (setting [14]) it was below 1 nM; in test [5] (setting [15]) it was 0.024 nM; in test [5] (setting [21]) it was 0.01 nM; in test [6] (setting [16]) it was below 1 nM; in test [6] (setting [17]), 0.048 nM. In addition, the EC50 in test [6] (setting [22]) is 0.018 nM; in test [8] (setting [23]), below 1 nM; in test [8] (setting [24]), 0.015 nM; in test [7] (setting [18]), below 1 nM; in test [7] (setting [19]) it was 0.012 nM; in test [7] (setting [20]), 0.01 nM.

Regarding `COC(=O)N[C@H](C(=O)N1[C@@H]2C[C@@H]2C[C@H]1c1ncc(-c2ccc3c(c2)COc2cc4c(ccc5nc([C@@H]6C[C@H](COC(F)F)CN6C(=O)[C@H](NC(=O)OC)c6ccccc6)[nH]c54)cc2-3)[nH]1)C(C)C` [Example MW], the EC50 in test [1] (setting [9]) is 0.026 nM; in test [2] (read-out: 1a), below 1 nM; in test [2] (read-out: 1a (nM)), 0.012 nM; in test [3] (setting [10]), below 1 nM; in test [3] (setting [11]), 0.012 nM; in test [5] (setting [14]), below 1 nM. For the same compound, the EC50 in test [5] (setting [15]) is 0.123 nM; in test [5] (setting [21]), 0.043 nM; in test [6] (setting [16]) it was below 1 nM; in test [6] (setting [22]), 0.02 nM; in test [7] (setting [18]) it was below 1 nM; in test [7] (setting [19]), 0.011 nM.

Take `COC[C@H]1C[C@@H](c2nc3ccc4cc5c(cc4c3[nH]2)OCc2cc(-c3cnc([C@@H]4CCCN4C(=O)[C@@H](NC(=O)OC)[C@@H](C)OC)[nH]3)ccc2-5)N(C(=O)[C@H](NC(=O)OC)c2ccccc2)C1` [Example OT, Methyl {(1R)-2-[(2S,4S)-2-(9-{2-[(2S)-1-{(2S,3R)-3-methoxy-2-[(methoxycarbonyl)amino]butanoyl}pyrrolidin-2-yl]-1H-imidazol-5-yl}-1,11-dihydroisochromeno[4′,3′:6,7]naphtho[1,2-d]imidazol-2-yl)-4-(methoxymethyl)pyrrolidin-1-yl]-2-oxo-1-phenylethyl}carbamate]: the EC50 in test [1] (setting [9]) was 0.02 nM; in test [2] (read-out: 1a) it was below 1 nM; in test [2] (read-out: 1a (nM)), 0.011 nM; in test [3] (setting [10]), below 1 nM; in test [3] (setting [11]), 0.005 nM; in test [4] (setting [12]), below 1 nM. Besides, the EC50 in test [4] (setting [13]) was 0.024 nM; in test [5] (setting [14]) it was below 1 nM; in test [5] (setting [21]), 0.012 nM; in test [6] (setting [16]), below 1 nM; in test [6] (setting [22]), 0.013 nM; in test [8] (setting [23]), below 1 nM. Further, the EC50 in test [8] (setting [24]) stood at 0.041 nM.

Regarding `COC[C@H]1C[C@@H](c2nc3ccc4cc5c(cc4c3[nH]2)OCc2cc(-c3cnc([C@@H]4C[C@H](C(F)(F)F)CN4C(=O)[C@@H](NC(=O)OC)C(C)C)[nH]3)ccc2-5)N(C(=O)[C@H](NC(=O)OC)c2ccccc2)C1` [Example PJ, methyl {(1R)-2-[(2S,4S)-2-(9-{2-[(2S,4S)-1-{(2S)-2-[(methoxycarbonyl)amino]-3-methylbutanoyl}-4-(trifluoromethyl)pyrrolidin-2-yl]-1H-imidazol-5-yl}-1,11-dihydroisochromeno[4′,3′:6,7]naphtho[1,2-d]imidazol-2-yl)-4-(methoxymethyl)pyrrolidin-1-yl]-2-oxo-1-phenylethyl}carbamate], the EC50 in test [1] (Hepatitis C virus, read-out: 1b (nM) EC50) is 0.088 nM; in test [2] (read-out: 1a (nM) EC50) it was 0.068 nM; in test [2] (read-out: 1a EC50 range), below 1 nM; in test [3] (Hepatitis C virus, read-out: 2a JFH (nM) EC50) it was 0.058 nM; in test [3] (Hepatitis C virus, read-out: 2a JFH EC50 range) it was below 1 nM; in test [5] (Hepatitis C virus, read-out: 2b (s) (nM) EC50), 0.854 nM. For the same compound, the EC50 in test [5] (Hepatitis C virus, read-out: 2b (t) (nM) EC50) is 0.335 nM; in test [5] (Hepatitis C virus, read-out: 2b EC50 range), below 1 nM; in test [6] (Hepatitis C virus, read-out: 2a J6 EC50 range), below 1 nM; in test [6] (Hepatitis C virus, read-out: 2a Jb (t) (nM) EC50), 0.136 nM; in test [7] (Hepatitis C virus, read-out: 4a (s) (nM) EC50) it was 0.056 nM; in test [7] (Hepatitis C virus, read-out: 4a EC50 range), below 1 nM.

For the compound `COC(=O)N[C@H](C(=O)N1C[C@@H](COC(F)F)C[C@H]1c1nc2ccc3cc4c(cc3c2[nH]1)OCc1cc(-c2cnc(C3CCCN3C(=O)OC(C)(C)C)[nH]2)ccc1-4)C(C)C` (stereo partly drawn) [Example PQ, tert-butyl 2-[5-(2-{(2S,4S)-4-[(difluoromethoxy)methyl]-1-[N-(methoxycarbonyl)-L-valyl]pyrrolidin-2-yl}-1,11-dihydroisochromeno[4′,3′:6,7]naphtho[1,2-d]imidazol-9-yl)-1H-imidazol-2-yl]pyrrolidine-1-carboxylate], the EC50 in test [1] (setting [9]) is 0.014 nM; in test [2] (read-out: 1a), below 1 nM; in test [2] (read-out: 1a (nM)), 0.014 nM; in test [3] (setting [10]), below 1 nM; in test [3] (setting [11]), 0.005 nM; in test [5] (setting [14]), below 1 nM. Further, the EC50 is 0.057 nM in test [5] (setting [15]); 0.032 nM in test [5] (setting [21]); below 1 nM in test [6] (setting [16]); 0.155 nM in test [6] (setting [17]); 0.025 nM in test [6] (setting [22]); below 1 nM in test [8] (setting [23]). Also, the EC50 is 0.106 nM in test [8] (setting [24]), below 1 nM in test [7] (setting [18]), 0.017 nM in test [7] (setting [19]) and 0.015 nM in test [7] (setting [20]).

Regarding “dimethyl (2S,2′S)-1,1′-((2S,2′S)-2,2′1-pyrrolidin-2-yl)-5H-naphtho[c,g]chromeno[8,9-d]imidazol-9-yl)-1H-imidazol-2-yl)pyrrolidin-1-yl))bis(3-methyl-1-oxobutane-2,1-diyl)dicarbamate [Example MC]”, the EC50 was 0.017 nM in test [1] (read-out: 1b); below 1 nM in test [3] (genotype 2a JFH, EC50 range, read-out: 2a JFH); 0.004 nM in test [3] (genotype 2a JFH, read-out: 2a JFH); below 1 nM in test [4] (genotype 3a, EC50 range, read-out: 3a); 0.004 nM in test [4] (genotype 3a, read-out: 3a); below 1 nM in test [5] (genotype 2b, EC50 range, transiently transfected cells (t), else stably replicating cells (s), read-out: 2b). Moreover, the EC50 in test [5] (stably replicating cells (s), read-out: 2b (s)) is 0.375 nM; in test [5] (transiently transfected cells (t), read-out: 2b (t)), 0.162 nM; in test [6] (genotype 2a J6, EC50 range, transiently transfected cells (t), else stably replicating cells (s), read-out: 2a J6) it was 1 to 4.99 nM; in test [6] (stably replicating cells (s), read-out: 2a J6 (s)), 3.52 nM; in test [6] (transiently transfected cells (t), read-out: 2a Jb (t)) it was 1.16 nM; in test [8] (1a Q30R resistance mutant, EC50 range, read-out: 1a Q30R), below 1 nM. The EC50 was 0.99 nM in test [8] (1a Q30R resistance mutant, read-out: 1a Q30R); below 1 nM in test [7] (genotype 4a, EC50 range, transiently transfected cells (t), else stably replicating cells (s), read-out: 4a); 0.028 nM in test [7] (stably replicating cells (s), read-out: 4a (s)); 0.008 nM in test [7] (transiently transfected cells (t), read-out: 4a (t)).

The values are drawn from patent US8575135B2 (Gilead Sciences, Inc., priority 2011, dated 2013).
